This test addresses T1, F508delCFTR (Homo sapiens, UniProt P13569, DEL508-508).
T1 construct: expressed in transfected cells; host or cells: CFBE41o- human lung-derived epithelial cells (CFBE4lo-F508delCFTR-HRP), doxycycline-inducible
Nature of the test: Cell Surface Expression-Horse Radish Peroxidase (CSE-HRP) Assay.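 For Maximum % activity (with co-corrector): co-corrector and positive control are both the same reference corrector at 2 µM.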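 For Maximum % activity (without co-corrector): percent of the 2 µM on-plate positive control corrector response above DMSO.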 In kind it is cell-based. The note with it: for Maximum % activity (with co-corrector) / Emax: maximum at any tested concentration, normalized to on-plate positive control; for Emax: read-out: Maximum % activity (without co-corrector).

The mark [1] stands for this setting: CSE-HRP, test compound without co-corrector, read-out: EC50 (without co-corrector).
Setting [2] is: CSE-HRP, with co-corrector (2 μM of 3-[(2R,4R)-4-({[1-(2,2-difluoro-1,3-benzodioxol-5-yl)cyclopropyl]carbonyl}amino)-7-methoxy-3,4-dihydro-2H-chromen-2-yl]benzoic acid), read-out: EC50 (with co-corrector).
The mark [3] stands for this setting: CSE-HRP, with co-corrector (2 μM).
[4] abbreviates: test compound without co-corrector, read-out: EC50 (without co-corrector).
The mark [5] stands for this setting: with co-corrector (2 μM of 3-[(2R,4R)-4-({[1-(2,2-difluoro-1,3-benzodioxol-5-yl)cyclopropyl]carbonyl}amino)-7-methoxy-3,4-dihydro-2H-chromen-2-yl]benzoic acid), read-out: EC50 (with co-corrector).
[6] abbreviates: test compound without co-corrector.
Where [7] appears, read: with co-corrector (2 μM of 3-[(2R,4R)-4-({[1-(2,2-difluoro-1,3-benzodioxol-5-yl)cyclopropyl]carbonyl}amino)-7-methoxy-3,4-dihydro-2H-chromen-2-yl]benzoic acid).

Structures are written as SMILES. Read-outs that look alike come from different tables or passages of the source. A value given as a limit tells only on which side of the number the result lay.

T1 sequence (P13569 with tags, fused parts or gaps DEL508-508): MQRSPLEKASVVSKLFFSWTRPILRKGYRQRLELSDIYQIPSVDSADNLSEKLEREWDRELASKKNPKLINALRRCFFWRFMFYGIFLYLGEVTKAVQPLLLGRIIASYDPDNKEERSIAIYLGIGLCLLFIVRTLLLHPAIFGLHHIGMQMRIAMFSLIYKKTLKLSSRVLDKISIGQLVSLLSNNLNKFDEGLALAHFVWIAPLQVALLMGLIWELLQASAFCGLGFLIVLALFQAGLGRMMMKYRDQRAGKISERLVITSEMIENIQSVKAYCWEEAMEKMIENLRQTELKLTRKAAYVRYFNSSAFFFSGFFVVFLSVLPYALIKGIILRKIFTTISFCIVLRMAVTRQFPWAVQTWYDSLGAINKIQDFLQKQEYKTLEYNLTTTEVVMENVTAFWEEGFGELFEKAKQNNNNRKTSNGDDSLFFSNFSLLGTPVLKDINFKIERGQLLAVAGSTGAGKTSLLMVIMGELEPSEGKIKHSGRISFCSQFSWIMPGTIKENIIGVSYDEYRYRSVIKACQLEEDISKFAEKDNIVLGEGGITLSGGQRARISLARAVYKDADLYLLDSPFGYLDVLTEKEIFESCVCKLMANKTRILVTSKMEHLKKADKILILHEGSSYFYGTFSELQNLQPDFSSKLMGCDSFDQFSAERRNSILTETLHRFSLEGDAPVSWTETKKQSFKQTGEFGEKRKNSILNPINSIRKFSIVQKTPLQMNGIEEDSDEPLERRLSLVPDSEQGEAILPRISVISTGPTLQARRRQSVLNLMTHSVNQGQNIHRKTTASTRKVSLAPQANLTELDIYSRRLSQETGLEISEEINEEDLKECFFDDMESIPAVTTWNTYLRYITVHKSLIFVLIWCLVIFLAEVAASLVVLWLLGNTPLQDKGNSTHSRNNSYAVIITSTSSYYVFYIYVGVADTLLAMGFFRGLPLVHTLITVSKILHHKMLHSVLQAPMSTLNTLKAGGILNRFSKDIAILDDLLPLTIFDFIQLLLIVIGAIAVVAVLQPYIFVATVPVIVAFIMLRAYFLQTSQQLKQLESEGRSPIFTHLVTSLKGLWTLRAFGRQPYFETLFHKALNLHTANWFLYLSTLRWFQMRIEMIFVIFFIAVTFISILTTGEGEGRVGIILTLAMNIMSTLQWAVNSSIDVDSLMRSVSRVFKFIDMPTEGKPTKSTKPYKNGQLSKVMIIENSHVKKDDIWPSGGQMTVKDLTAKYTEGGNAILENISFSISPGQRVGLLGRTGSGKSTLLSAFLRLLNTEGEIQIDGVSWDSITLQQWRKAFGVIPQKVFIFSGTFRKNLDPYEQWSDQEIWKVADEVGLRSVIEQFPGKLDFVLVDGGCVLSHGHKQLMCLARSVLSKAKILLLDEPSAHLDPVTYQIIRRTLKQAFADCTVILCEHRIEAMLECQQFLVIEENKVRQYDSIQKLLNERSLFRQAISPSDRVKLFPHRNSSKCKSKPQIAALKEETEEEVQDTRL

Regarding `COc1ccc(C(F)(F)F)cc1CN[C@H]1[C@H](C(C)(C)C)[C@@H](C(=O)O)N(C(=O)C2Cc3ccccc3CO2)[C@H]1c1ccccc1` (some centres unmarked) [II-299], the concentration giving a half-maximal response (EC50) reads like this: under setting [1], 1000 to 10000 nM; under setting [2], 1000 to 10000 nM. The “Maximum % activity (with co-corrector)” value under setting [3] is recorded as “+++ (≥350)”. For the same compound, where the note is “CSE-HRP, without co-corrector”, the Emax is 100 to 200%.
On to `COc1ncc(C(F)(F)F)cc1CN[C@H]1[C@H](C(C)(C)C)[C@@H](C(=O)O)N(C(=O)[C@@H]2CCC[C@@H](OC)C2)[C@H]1c1ccccc1` [Example I-79], for which the EC50 by setting is: under setting [4], 1000 to 10000 nM; under setting [5], 1000 to 10000 nM. In addition, the “Maximum % activity (with co-corrector)” value (with co-corrector (2 μM)) is on record as “+++ (≥350)”. Moreover, the Emax (without co-corrector) was more than 200%.
On to `COc1ccc(C(F)(F)F)cc1CN[C@H]1[C@H](C(C)(C)C)[C@@H](C(=O)O)N(C(=O)[C@](OC)(c2ccccc2)C(F)(F)F)[C@H]1c1ccccc1` [III-100], for which the Emax under setting [6] is less than 100%. For the same compound, the concentration for a half-maximal effect (EC50) by setting is: under setting [4], more than 10000 nM; under setting [5], 1000 to 10000 nM. The “Maximum % activity (with co-corrector)” value (with co-corrector (2 μM)) was “++ (≥150 and <350)”.
For `COc1nc(C2CCC2)ccc1CN[C@H]1[C@H](C(C)(C)C)[C@@H](C(=O)O)N(C(=O)OC(C)C)[C@H]1c1cccnc1N(C)C` [II-548], the Emax under setting [6] was 100 to 200%. Moreover, the EC50 fell in the range of 1000 to 10000 nM under setting [4] and 1000 to 10000 nM under setting [5]. Besides, under setting [7], the “Maximum % activity (with co-corrector)” value is on record as “+++ (≥350)”.
Regarding `COc1ccc(C(C)(C)C)cc1CN[C@H]1[C@H](C(C)(C)C)[C@@H](C(=O)O)N(C(=O)[C@H](C)c2ccccc2)[C@H]1c1ccccc1` [II-315], the EC50 is, setting by setting: under setting [1], less than 1000 nM; under setting [2], less than 1000 nM. Under setting [3], the “Maximum % activity (with co-corrector)” value is listed as “+++ (≥350)”. Besides, the Emax (CSE-HRP, without co-corrector) was more than 200%.
On to `COc1ccc(C(C)(C)C)cc1CN[C@H]1[C@H](C(C)(C)C)[C@@H](C(=O)O)N(C(=O)C2CCc3ccccc3O2)[C@H]1c1cccnc1N(C)C` (single isomer, unassigned) [II-438], for which the Emax under setting [6] is less than 100%. Besides, the EC50 under setting [4] lay within 1000 to 10000 nM. The “Maximum % activity (with co-corrector)” value under setting [7] is “++ (≥150 and <350)”.
`COc1ccc(C(C)(C)C)cc1CN[C@H]1[C@H](C(C)(C)C)[C@@H](C(=O)O)N(C(=O)c2cc(F)cc3c2OCOC3)[C@H]1c1ccccc1` [III-178]: the Emax under setting [6] lay within 100 to 200%. The concentration for a half-maximal effect (EC50) lay within 1000 to 10000 nM under setting [4] and 1000 to 10000 nM under setting [5]. Further, where the note is “with co-corrector (2 μM)”, the “Maximum % activity (with co-corrector)” value is listed as “+++ (≥350)”.
Take `COc1ccc(C2(C)CCC2)cc1CN[C@H]1[C@H](C(C)(C)C)[C@@H](C(=O)O)N(C(=O)[C@H]2CCCCO2)[C@H]1c1cccnc1N(C)C` [II-493]: the Emax under setting [6] was more than 200%. The EC50 fell in the range of 1000 to 10000 nM under setting [4] and 1000 to 10000 nM under setting [5]. In addition, under setting [7], the “Maximum % activity (with co-corrector)” value is “+++ (≥350)”.
`COc1ccc(C(C)(C)C)cc1CN[C@H]1[C@H](C(C)(C)C)[C@@H](C(=O)O)N(C(=O)C2CCCCC2C(F)(F)F)[C@H]1c1ccccc1` (some centres unmarked) [II-378]: the Emax under setting [6] is more than 200%. In addition, the concentration for a half-maximal effect (EC50) is, setting by setting: under setting [4], less than 1000 nM; under setting [5], less than 1000 nM. Under setting [7], the “Maximum % activity (with co-corrector)” value was “+++ (≥350)”.
For `CC(C)(C)[C@@H]1[C@@H](Nc2cc(Cl)ccn2)[C@@H](c2ccccc2)N(C(=O)C2CCCCC2)[C@H]1C(=O)O` (racemic) [III-6], under setting [6], the Emax is less than 100%. Besides, the EC50 reads like this: under setting [4], more than 10000 nM; under setting [5], 1000 to 10000 nM. Moreover, the “Maximum % activity (with co-corrector)” value under setting [7] was “++ (≥150 and <350)”.
In the case of `COc1ccc(C2(C)CCC2)cc1CN[C@H]1[C@H](C(C)(C)C)[C@@H](C(=O)O)N(C(=O)[C@@H]2CCCO2)[C@H]1c1ccccc1Br` [Example I-295], the EC50 was 1000 to 10000 nM under setting [1] and less than 1000 nM under setting [2]. Besides, under setting [3], the “Maximum % activity (with co-corrector)” value was “+++ (≥350)”. Also, the Emax (CSE-HRP, without co-corrector) is more than 200%.
In the same order, the values of `COc1ccc(C(C)(C)C)cc1CN[C@H]1[C@H](C(C)(C)C)[C@@H](C(=O)O)N(C(=O)C(C)Oc2cccc(F)c2)[C@H]1c1ccccc1` (some centres unmarked) [II-305] are less than 1000 nM, less than 1000 nM, “+++ (≥350)” and 100 to 200%.
Take `COc1ccc(C(C)(C)C)cc1CN[C@H]1[C@H](C(C)(C)C)[C@@H](C(=O)O)N(C(=O)C2CCCCS2(=O)=O)[C@H]1c1ccccc1` (some centres unmarked) [II-153]: the concentration for a half-maximal effect (EC50) under setting [1] is 1000 to 10000 nM and the 50% effective concentration (EC50) under setting [2] was 1000 to 10000 nM. Further, the “Maximum % activity (with co-corrector)” value under setting [3] is listed as “+++ (≥350)”. The Emax (CSE-HRP, without co-corrector) is more than 200%.
With `COc1ccc(Cl)cc1CN[C@@H]1[C@@H](C2CC2)[C@H](C(=O)O)N(C(=O)C2CCCCC2)[C@@H]1c1ccccc1` (racemic) [II-12], the EC50 under setting [1] fell in the range of 1000 to 10000 nM and the EC50 under setting [2] lay in the range of 1000 to 10000 nM. In addition, under setting [3], the “Maximum % activity (with co-corrector)” value was “+++ (≥350)”. Further, under “CSE-HRP, without co-corrector”, the Emax is 100 to 200%.
Consider `COc1ccc(C(C)(C)C)cc1CN[C@H]1[C@H](C(C)(C)C)[C@@H](C(=O)O)N(C(=O)C2(C)CCc3cc(C)ccc32)[C@H]1c1ccccc1` (some centres unmarked) [Example I-147], for which the EC50 runs as follows: under setting [4], 1000 to 10000 nM; under setting [5], 1000 to 10000 nM. For the same compound, the “Maximum % activity (with co-corrector)” value (with co-corrector (2 μM)) is on record as “+++ (≥350)”. Further, the Emax (without co-corrector) is less than 100%.
Turning to `COc1ccc(-c2cnccc2C)cc1CN[C@H]1[C@H](C(C)(C)C)[C@@H](C(=O)O)N(C(=O)C2CCCCC2)[C@H]1c1ccccc1` [II-280], the concentration for a half-maximal effect (EC50) by setting is: under setting [1], 1000 to 10000 nM; under setting [2], 1000 to 10000 nM. The “Maximum % activity (with co-corrector)” value under setting [3] is “+++ (≥350)”. Moreover, the Emax (CSE-HRP, without co-corrector) is less than 100%.
With `COc1ccc(-c2ccccc2C#N)cc1CN[C@H]1[C@H](C(C)(C)C)[C@@H](C(=O)O)N(C(=O)C2CCCCC2)[C@H]1c1ccccc1` [Example I-128], the EC50 runs as follows: under setting [4], 1000 to 10000 nM; under setting [5], 1000 to 10000 nM. Also, the “Maximum % activity (with co-corrector)” value (with co-corrector (2 μM)) was “+++ (≥350)”. Besides, the Emax (without co-corrector) lay in the range of 100 to 200%.
Take `COc1ncc(C(F)(F)F)cc1CN[C@H]1[C@H](C(C)(C)C)[C@@H](C(=O)O)N(C(=O)C2CCCC2)[C@H]1c1ccccc1C(C)C` [Example 98, (2S,3S,4S,5S)-3-tert-butyl-1-(cyclopentanecarbonyl)-4-({[2-methoxy-5-(trifluoromethyl)pyridin-3-yl]methyl}amino)-5-[2-(propan-2-yl)phenyl]pyrrolidine-2-carboxylic acid]: the EC50 runs as follows: under setting [4], less than 1000 nM; under setting [5], less than 1000 nM. Moreover, the “Maximum % activity (with co-corrector)” value (with co-corrector (2 μM)) was “+++ (≥350)”. In addition, under “without co-corrector”, the Emax is more than 200%.
Take `COc1ccc(C(C)(C)C)cc1CN[C@H]1[C@H](C(C)(C)C)[C@@H](C(=O)O)N(C(=O)C(C)CC(F)(F)F)[C@H]1c1ccccc1` (some centres unmarked) [II-304]: the concentration giving a half-maximal response (EC50) was in the range of 1000 to 10000 nM under setting [1] and 1000 to 10000 nM under setting [2]. Also, the “Maximum % activity (with co-corrector)” value under setting [3] is recorded as “+++ (≥350)”. Moreover, for the setting “CSE-HRP, without co-corrector”, the Emax was more than 200%.
Regarding `COc1ccc(C(F)(F)F)cc1CN[C@H]1[C@H](C(C)(C)C)[C@@H](C(=O)O)N(C(=O)C2CCCO2)[C@H]1c1ccccc1` (mixture of isomers) [II-59], the concentration giving a half-maximal response (EC50) reads like this: under setting [1], 1000 to 10000 nM; under setting [2], 1000 to 10000 nM. Further, the “Maximum % activity (with co-corrector)” value under setting [3] is listed as “+++ (≥350)”. For the setting “CSE-HRP, without co-corrector”, the Emax fell in the range of 100 to 200%.
Regarding `Cc1cc(C(F)(F)F)cc(N[C@H]2C(c3ccccc3)N(C(=O)N(C(C)C)C(C)C)[C@@H](C(=O)O)[C@@H]2C2CC2)n1` (mixture of isomers) [III-47], the Emax under setting [6] was less than 100%. The EC50 under setting [4] is 1000 to 10000 nM and the EC50 under setting [5] lay in the range of 1000 to 10000 nM. In addition, the “Maximum % activity (with co-corrector)” value under setting [7] was “++ (≥150 and <350)”.

As a reminder, the EC50 is the midpoint of the concentration-response curve.

(Values after patent US20180099931A1 (AbbVie S.à.r.l., priority 2016, published 2018).)
